Earlier results as cited in patent US20230065964A1, “COMPOSITION FOR ENHANCING UROLITHIN PRODUCTION IN A HUMAN SUBJECT” (Migalis ApS, priority 2020, published 2023).

Columns and labels:
Chaenorhabditis elegans = details: for Pharyngeal pumping rate and mobility: during aging
[1] = tested on: skeletal muscle of humans; details: 28 days oral administration, 500 mg/d and 1000 mg/d

Compound	Pharyngeal pumping rate and mobility (Chaenorhabditis elegans)	mitochondrial biogenesis in the skeletal muscle [1]	mitochondrial biogenesis (Chaenorhabditis elegans; older worms)	mitophagy (Chaenorhabditis elegans; throughout the duration of the treatment)	Lean muscle mass (old mice)	greater level of spontaneous exercise (muscle function) (old mice)	greater running endurance (endurance capacity) (old mice)	expression of autophagy and mitophagy transcripts (old mice; molecular level)
O=c1oc2cc(O)ccc2c2cc(O)c(O)cc12 [urolithin C]	mild to no benefit	–	–	–	–	–	–	–
O=c1oc2cc(O)ccc2c2ccc(O)cc12 [Urolithin A, urolithin A]	improved	stimulated	activated	activated mitophagy	did not increase	57%	42%	general tendency for a higher expression
O=c1oc2c(O)c(O)ccc2c2cc(O)c(O)cc12 [urolithin D]	mild to no benefit	–	–	–	–	–	–	–
